In patent US20250241879A1, “CAPSAICIN SEQUENTIAL DOSING METHOD FOR TREATMENT OF KNEE JOINT PAIN” (priority 2018, published 2025):

How the values were obtained:
[1] = system: human patients with bilateral knee osteoarthritis; assay: Procedure pain (NPRS) due to intraarticular trans-capsaicin, Breg pad vs ice pack cooling (Example 7); format: in vivo; details: 1 mg intraarticular
Protocol: (§1) Human patients experiencing osteoarthritic knee joint pain were subjected to two different protocols for intraarticular administration of trans-capsaicin. Temporary pain expected due to administration of capsaicin was analyzed, along with the intraarticular temperature of the knee joint and the temperature of the patient's skin in the area to be cooled.
(§2) One of the protocols utilized a Breg Knee WrapOn Polar Pad (as illustrated in FIG. 1) that utilizes circulating ice-water to achieve cooling, where the pad is placed on skin surrounding the knee in order to cool the knee joint. The other protocol utilized ice-pack cooling, in which the patient's knee was wrapped with a stockinette and then the ice pack was positioned on top of the stockinette so that the ice pack is positioned over the patient's patella to thereby cool the knee joint. The ice pack was a LEADSTAR pain relief reusable cold therapy ice pack (size=6 inches). A temperature probe was placed into the intraarticular space of the patient's knee joint to measure intraarticular temperature of the knee joint. A temperature probe was also placed on the skin in the area to be cooled in order to measure skin temperature in the area to be cooled.
Five human patients suffering from moderate to severe painful bilateral knee osteoarthritis were recruited for this study evaluating the impact that cooling protocol has on the magnitude of temporary pain experienced by the patient due to administration of capsaicin. […] Patients that participated in the study passed the following screening criteria and meet the patient inclusion and exclusion criteria are set forth below. As part of patient screening, patients received an intradermal injection of 100 μL (100 μg) capsaicin into the non-dominant volar forearm. To be eligible to enter the study, patients were able to tolerate the capsaicin injection. Screening patients rated the pain from capsaicin injection at 5, 10, 20, and 30 minutes after injection using a 0-10 Numerical Pain Rating Scale, where “0” equals no pain and “10” equals worst possible pain.
as §2, with “ice pack (having a surface for application to the patient, wherein said surface has a diameter of approximately six inches) is positioned” for “ice pack is positioned”, “knee joint. A temperature” for “knee joint. The ice pack was a LEADSTAR pain relief reusable cold therapy ice pack (size=6 inches). A temperature”, “knee joint. At the discretion of the physician performing the procedure, in order to reduce discomfort for the patient, the protocol authorized the physician to instill a volume of 1-2 cc of 2% w/w lidocaine (without epinephrine) into the skin and subcutaneous tissue of the knee at the site of intra-articular probe insertion. A temperature” for “knee joint. A temperature”
One the first day of the study, patients were randomized so that (i) three patients receiving cooling of the knee joint using the Breg Knee WrapOn Polar Pad and (ii) two patients will receive ice-pack cooling over the patella as set forth above. Patients were subjected to the following procedure: • Placement of intraarticular temperature probe and skin temperature probe. […]

[2] = system: human patients with knee osteoarthritis; assay: Procedure pain (NPRS) due to intraarticular trans-capsaicin, Breg pad vs Elasto-Gel wrap cooling (Example 8); format: in vivo; details: four patients (Example 8), 1 mg intraarticular
Protocol: as §1
One of the protocols utilized a Breg Knee WrapOn Polar Pad (as illustrated in FIG. 1) that utilizes circulating ice-water to achieve cooling, where the pad is placed on skin surrounding the knee in order to cool the knee joint. The other protocol utilized an Elasto-Gel All Purpose Therapy Wrap measuring 6 inches by 24 inches in size, in order to cool the knee joint. A temperature probe was placed into the intraarticular space of the patient's knee joint to measure intraarticular temperature of the knee joint. A temperature probe was also placed on the skin in the area to be cooled in order to measure skin temperature in the area to be cooled.
Experimental procedure used was the same as described in Example 8 herein, except that an Elasto-Gel All Purpose Therapy Wrap measuring 6 inches by 24 inches in size was used to cool the knee joint, in lieu of the ice pack. The Elasto-Gel All Purpose Therapy Wrap was removed from a freezer (approximately 0° F.) just prior to use.

COc1cc(CNC(=O)CCCCC=CC(C)C)ccc1O [trans-capsaicin, N-[(4-hydroxy-3-methoxyphenyl)methyl]-8-methylnon-6-enamide]
Knee Pain (NPRS) ([1]; Ice Pack cooling, 20 min, all five patients (Example 7)): 0.4 (+/−0.5) | Knee Pain (NPRS) ([1]; Ice Pack cooling, 20 min, four patients (Example 7)): 0.5 (+/−0.6) | Knee Pain (NPRS) ([1]; Ice Pack cooling, 30 min, all five patients (Example 7)): 0.3 (+/−0.5) | Knee Pain (NPRS) ([1]; Ice Pack cooling, 30 min, four patients (Example 7)): 0.3 (+/−0.6) | Knee Pain (NPRS) ([1]; Ice Pack cooling, 40 min, all five patients (Example 7)): 0.0 | Knee Pain (NPRS) ([1]; Ice Pack cooling, 40 min, four patients (Example 7)): 0.0 | Knee Pain (NPRS) ([1]; Ice Pack cooling, 50 min, all five patients (Example 7)): 0.3 (+/−0.5) | Knee Pain (NPRS) ([1]; Ice Pack cooling, 50 min, four patients (Example 7)): 0.3 (+/−0.5) | Knee Pain (NPRS) ([1]; Ice Pack cooling, 70 min, all five patients (Example 7)): 7.3 (+/−1.9) | Knee Pain (NPRS) ([1]; Ice Pack cooling, 70 min, four patients (Example 7)): 7.3 (+/−1.9) | Knee Pain (NPRS) ([1]; Ice Pack cooling, 80 min, all five patients (Example 7)): 5.4 (+/−3.7) | Knee Pain (NPRS) ([1]; Ice Pack cooling, 80 min, four patients (Example 7)): 6.8 (+/−2.5) | Knee Pain (NPRS) ([1]; Ice Pack cooling, 90 min, all five patients (Example 7)): 4.0 (+/−1.6) | Knee Pain (NPRS) ([1]; Ice Pack cooling, 90 min, four patients (Example 7)): 4.3 (+/−1.7) | Knee Pain (NPRS) ([1]; Ice Pack cooling, 100 min, all five patients (Example 7)): 3.2 (+/−1.6) | Knee Pain (NPRS) ([1]; Ice Pack cooling, 100 min, four patients (Example 7)): 3.5 (+/−1.7) | Knee Pain (NPRS) ([1]; Ice Pack cooling, 110 min, all five patients (Example 7)): 2.4 (+/−2.1) | Knee Pain (NPRS) ([1]; Ice Pack cooling, 110 min, four patients (Example 7)): 2.8 (+/−2.2) | Knee Pain (NPRS) ([1]; Ice Pack cooling, 120 min, all five patients (Example 7)): 1.8 (+/−1.3) | Knee Pain (NPRS) ([1]; Ice Pack cooling, 120 min, four patients (Example 7)): 2.0 (+/−1.4) | Knee Pain (NPRS) ([1]; Ice Pack cooling, 130 min, all five patients (Example 7)): 2.0 (+/−1.0) | Knee Pain (NPRS) ([1]; Ice Pack cooling, 130 min, four patients (Example 7)): 2.3 (+/−1.0) | Knee Pain (NPRS) ([1]; Ice Pack cooling, 140 min, all five patients (Example 7)): 1.8 (+/−1.1) | Knee Pain (NPRS) ([1]; Ice Pack cooling, 140 min, four patients (Example 7)): 1.8 (+/−1.3) | Knee Pain (NPRS) ([1]; Ice Pack cooling, 150 min, all five patients (Example 7)): 1.4 (+/−0.9) | Knee Pain (NPRS) ([1]; Ice Pack cooling, 150 min, four patients (Example 7)): 1.3 (+/−1.0) | Knee Pain (NPRS) ([1]; Ice Pack cooling, 160 min, all five patients (Example 7)): 1.0 (+/−1.4) | Knee Pain (NPRS) ([1]; Ice Pack cooling, 160 min, four patients (Example 7)): 2.0 | Knee Pain (NPRS) ([1]; Ice Pack cooling, 170 min, all five patients (Example 7)): 0.5 (+/−0.7) | Knee Pain (NPRS) ([1]; Ice Pack cooling, 170 min, four patients (Example 7)): 1.0 | Knee Pain (NPRS) ([1]; Ice Pack cooling, 180 min, all five patients (Example 7)): 7.0 | Knee Pain (NPRS) ([1]; Ice Pack cooling, 180 min, four patients (Example 7)): 7.0 | Knee Pain (NPRS) ([1]; Ice Pack cooling, 190 min, all five patients (Example 7)): 2.0 | Knee Pain (NPRS) ([1]; Ice Pack cooling, 190 min, four patients (Example 7)): 2.0 | Knee Pain (NPRS) ([1]; Ice Pack cooling, Baseline, all five patients (Example 7)): 1.0 (+/−2.2) | Knee Pain (NPRS) ([1]; Ice Pack cooling, Baseline, four patients (Example 7)): 1.3 (+/−2.5) | Knee Pain (NPRS) ([1]; Standard Cooling Device (Breg pad), 20 min, all five patients (Example 7)): 1.0 (+/−1.7) | Knee Pain (NPRS) ([1]; Standard Cooling Device (Breg pad), 20 min, four patients (Example 7)): 1.3 (+/−1.9) | Knee Pain (NPRS) ([1]; Standard Cooling Device (Breg pad), 30 min, all five patients (Example 7)): 1.2 (+/−1.1) | Knee Pain (NPRS) ([1]; Standard Cooling Device (Breg pad), 30 min, four patients (Example 7)): 1.3 (+/−1.3) | Knee Pain (NPRS) ([1]; Standard Cooling Device (Breg pad), 50 min, all five patients (Example 7)): 0.8 (+/−0.8) | Knee Pain (NPRS) ([1]; Standard Cooling Device (Breg pad), 50 min, four patients (Example 7)): 1.0 (+/−0.8) | Knee Pain (NPRS) ([1]; Standard Cooling Device (Breg pad), 70 min, all five patients (Example 7)): 5.0 (+/−2.9) | Knee Pain (NPRS) ([1]; Standard Cooling Device (Breg pad), 70 min, four patients (Example 7)): 4.0 (+/−2.2) | Knee Pain (NPRS) ([1]; Standard Cooling Device (Breg pad), 80 min, all five patients (Example 7)): 4.0 (+/−1.4) | Knee Pain (NPRS) ([1]; Standard Cooling Device (Breg pad), 80 min, four patients (Example 7)): 3.8 (+/−1.5) | Knee Pain (NPRS) ([1]; Standard Cooling Device (Breg pad), 90 min, all five patients (Example 7)): 2.8 (+/−1.6) | Knee Pain (NPRS) ([1]; Standard Cooling Device (Breg pad), 90 min, four patients (Example 7)): 2.5 (+/−1.7) | Knee Pain (NPRS) ([1]; Standard Cooling Device (Breg pad), 100 min, all five patients (Example 7)): 2.0 (+/−1.4) | Knee Pain (NPRS) ([1]; Standard Cooling Device (Breg pad), 100 min, four patients (Example 7)): 1.8 (+/−1.5) | Knee Pain (NPRS) ([1]; Standard Cooling Device (Breg pad), 110 min, all five patients (Example 7)): 1.2 (+/−0.8) | Knee Pain (NPRS) ([1]; Standard Cooling Device (Breg pad), 110 min, four patients (Example 7)): 1.3 (+/−1.0) | Knee Pain (NPRS) ([1]; Standard Cooling Device (Breg pad), 120 min, all five patients (Example 7)): 1.0 (+/−0.7) | Knee Pain (NPRS) ([1]; Standard Cooling Device (Breg pad), 120 min, four patients (Example 7)): 1.0 (+/−0.8) | Knee Pain (NPRS) ([1]; Standard Cooling Device (Breg pad), 130 min, all five patients (Example 7)): 0.6 (+/−0.5) | Knee Pain (NPRS) ([1]; Standard Cooling Device (Breg pad), 130 min, four patients (Example 7)): 0.8 (+/−0.5) | Knee Pain (NPRS) ([1]; Standard Cooling Device (Breg pad), 140 min, all five patients (Example 7)): 1.2 (+/−0.8) | Knee Pain (NPRS) ([1]; Standard Cooling Device (Breg pad), 140 min, four patients (Example 7)): 1.0 (+/−0.8) | Knee Pain (NPRS) ([1]; Standard Cooling Device (Breg pad), 150 min, all five patients (Example 7)): 1.2 (+/−1.1) | Knee Pain (NPRS) ([1]; Standard Cooling Device (Breg pad), 150 min, four patients (Example 7)): 1.3 (+/−1.3) | Knee Pain (NPRS) ([1]; Standard Cooling Device (Breg pad), Baseline, all five patients (Example 7)): 1.8 (+/−2.4) | Knee Pain (NPRS) ([1]; Standard Cooling Device (Breg pad), Baseline, four patients (Example 7)): 2.0 (+/−2.7) | Knee Pain (NPRS) ([2]; Ice-Gel Pack (Elasto-Gel wrap), 20 min): 0.8 (+/−0.5) | Knee Pain (NPRS) ([2]; Ice-Gel Pack (Elasto-Gel wrap), 30 min): 0.5 (+/−0.6) | Knee Pain (NPRS) ([2]; Ice-Gel Pack (Elasto-Gel wrap), 50 min): 0.8 (+/−1.0) | Knee Pain (NPRS) ([2]; Ice-Gel Pack (Elasto-Gel wrap), 70 min): 4.8 (+/−3.2) | Knee Pain (NPRS) ([2]; Ice-Gel Pack (Elasto-Gel wrap), 80 min): 4.3 (+/−3.0) | Knee Pain (NPRS) ([2]; Ice-Gel Pack (Elasto-Gel wrap), 90 min): 3.0 (+/−1.8) | Knee Pain (NPRS) ([2]; Ice-Gel Pack (Elasto-Gel wrap), 100 min): 2.8 (+/−1.5) | Knee Pain (NPRS) ([2]; Ice-Gel Pack (Elasto-Gel wrap), 110 min): 2.8 (+/−2.1) | Knee Pain (NPRS) ([2]; Ice-Gel Pack (Elasto-Gel wrap), 120 min): 4.5 (+/−3.3) | Knee Pain (NPRS) ([2]; Ice-Gel Pack (Elasto-Gel wrap), 130 min): 3.0 (+/−1.4) | Knee Pain (NPRS) ([2]; Ice-Gel Pack (Elasto-Gel wrap), Baseline): 1.0 (+/−0.8) | Knee Pain (NPRS) ([2]; Standard Cooling Device (Breg pad), 20 min): 0.5 (+/−0.6) | Knee Pain (NPRS) ([2]; Standard Cooling Device (Breg pad), 30 min): 0.5 (+/−0.6) | Knee Pain (NPRS) ([2]; Standard Cooling Device (Breg pad), 50 min): 0.8 (+/−1.0) | Knee Pain (NPRS) ([2]; Standard Cooling Device (Breg pad), 70 min): 2.5 (+/−3.7) | Knee Pain (NPRS) ([2]; Standard Cooling Device (Breg pad), 80 min): 2.5 (+/−3.0) | Knee Pain (NPRS) ([2]; Standard Cooling Device (Breg pad), 90 min): 2.5 (+/−2.4) | Knee Pain (NPRS) ([2]; Standard Cooling Device (Breg pad), 100 min): 1.8 (+/−1.5) | Knee Pain (NPRS) ([2]; Standard Cooling Device (Breg pad), 110 min): 1.8 (+/−1.5) | Knee Pain (NPRS) ([2]; Standard Cooling Device (Breg pad), 120 min): 1.3 (+/−1.3) | Knee Pain (NPRS) ([2]; Standard Cooling Device (Breg pad), 130 min): 1.5 (+/−1.0) | Knee Pain (NPRS) ([2]; Standard Cooling Device (Breg pad), Baseline): 0.5 (+/−0.6)
